Experimental data reported in BindingDB's records for doi:10.1016/j.bmc.2021.116093 (Wayne State University School of Medicine, 2021).

Assays:
[1] = Inhibition of human FRbeta expressed in Chinese Hamster MTXRII-OuaR2-4 R2 cells assessed as reduction in cell proliferation after 96 hrs by CellTiter-blue assay
[2] = Inhibition of human RFC expressed in Chinese Hamster MTXRII-OuaR2-4 R2 cells assessed as reduction in cell proliferation after 96 hrs by CellTiter-blue assay
[3] = Inhibition of human FRalpha expressed in Chinese Hamster MTXRII-OuaR2-4 R2 cells assessed as reduction in cell proliferation after 96 hrs by CellTiter-blue assay
[4] = Inhibition of human PCFT expressed in Chinese Hamster MTXRII-OuaR2-4 R2 cells assessed as reduction in cell proliferation after 96 hrs by CellTiter-blue assay

Row | IC50 [4] [nM] | Structure (SMILES) | IC50 [1] [nM] | IC50 [2] [nM] | IC50 [3] [nM]
1 | > 1000 | Nc1nc2sc(CCCCc3cc(C(=O)N[C@@H](CCC(=O)O)C(=O)O)cs3)cc2c(=O)[nH]1 | 1.2 | > 1000 | 0.91
2 | 460 | Nc1nc2sc(CCCCc3csc(C(=O)N[C@@H](CCC(=O)O)C(=O)O)c3)cc2c(=O)[nH]1 | 5.6 | > 1000 | 5.6
3 | 107 | Nc1nc2sc(CCCc3csc(C(=O)N[C@@H](CCC(=O)O)C(=O)O)c3)cc2c(=O)[nH]1 | 0.24 | > 1000 | 0.44
4 | 80 | Nc1nc2sc(CCCc3cc(C(=O)N[C@@H](CCC(=O)O)C(=O)O)cs3)cc2c(=O)[nH]1 | 0.72 | > 1000 | 1.1
5 | – | Nc1nc2sc(CCCCc3ccc(C(=O)N[C@@H](CCC(=O)O)C(=O)O)cc3)cc2c(=O)[nH]1 [(S)-2-(4-(4-(2-amino-4-oxo-3,4-dihydrothieno[2,3-d]pyrimidin-6-yl)butyl)benzamido)pentanedioic acid] | 20 | > 1000 | 9

Row | Structure (SMILES) | IC50 [4] [nM] | IC50 [1] [nM] | IC50 [2] [nM] | IC50 [3] [nM]
6 | Nc1nc2sc(CCCCc3ccc(C(=O)N[C@@H](CCC(=O)O)C(=O)O)s3)cc2c(=O)[nH]1 | > 1000 | 1.7 | > 1000 | 2.6
7 | Nc1nc2sc(CCCCc3ccc(C(=O)N[C@@H](CCC(=O)O)C(=O)O)o3)cc2c(=O)[nH]1 | > 1000 | 2.6 | > 1000 | 11
8 | Nc1nc2sc(CCCc3ccc(C(=O)N[C@@H](CCC(=O)O)C(=O)O)s3)cc2c(=O)[nH]1 | > 1000 | 1.8 | > 1000 | 0.34
